Experimental findings from ChEMBL document CHEMBL1201862, “PubChem BioAssay data set” (2004) are described below.

The target of assay [1] is DNA dC->dU-editing enzyme APOBEC-3A (Homo sapiens, UniProt P31941). Nature of the assay: Dose Response confirmation of small molecule APOBEC3A DNA Deaminase Inhibitors via a fluorescence-based single-stranded DNA deaminase assay. [Related pubchem assays (depositor defined):AID493011, AID493024]. It counts as functional.
Assay [2] concerns the target T1, Ubiquitin-conjugating enzyme E2 N (Homo sapiens, UniProt P61088).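 Also: Dose-response confirmation in a TR-FRET assay detecting UBC13-driven polyubiquitin chain formation, inhibition measured.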
T1 sequence (P61088 whole entry): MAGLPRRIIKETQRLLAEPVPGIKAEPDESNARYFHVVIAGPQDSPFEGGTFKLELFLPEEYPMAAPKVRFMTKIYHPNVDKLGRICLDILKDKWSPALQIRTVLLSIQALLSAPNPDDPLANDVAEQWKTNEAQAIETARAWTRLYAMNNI
The format is functional.

For assay [3], the system named is A-375. Nature of the assay: A375 melanoma cell viability reduction, dose response, counter-screen for MITF modulator project, cherry-pick samples, set 2 (AID 540335). The format is functional, cell-based. The settings on record: Homo sapiens. A general note: A counterscreen serves to expose hits that act by an unwanted route or on another target.
Assay [4] has as its target DNA dC->dU-editing enzyme APOBEC-3G (Homo sapiens, UniProt Q9HC16). It counts as functional.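 Also: Dose-response counterscreen measuring inhibition of APOBEC3G DNA deaminase activity, run while confirming APOBEC3A inhibitors.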
Assay [5] concerns A-375. Nature of the assay: MITF: Counter assay: A375 proliferation Measured in Cell-Based System Using Plate Reader - 2084-03_Inhibitor_Dose_DryPowder_Activity. [Related pubchem assays (depositor defined):AID488944]. It counts as functional. The following applies: Homo sapiens.
In assay [6] the target is T2, Microphthalmia-associated transcription factor (Homo sapiens, UniProt O75030).
T2 sequence (O75030 whole entry): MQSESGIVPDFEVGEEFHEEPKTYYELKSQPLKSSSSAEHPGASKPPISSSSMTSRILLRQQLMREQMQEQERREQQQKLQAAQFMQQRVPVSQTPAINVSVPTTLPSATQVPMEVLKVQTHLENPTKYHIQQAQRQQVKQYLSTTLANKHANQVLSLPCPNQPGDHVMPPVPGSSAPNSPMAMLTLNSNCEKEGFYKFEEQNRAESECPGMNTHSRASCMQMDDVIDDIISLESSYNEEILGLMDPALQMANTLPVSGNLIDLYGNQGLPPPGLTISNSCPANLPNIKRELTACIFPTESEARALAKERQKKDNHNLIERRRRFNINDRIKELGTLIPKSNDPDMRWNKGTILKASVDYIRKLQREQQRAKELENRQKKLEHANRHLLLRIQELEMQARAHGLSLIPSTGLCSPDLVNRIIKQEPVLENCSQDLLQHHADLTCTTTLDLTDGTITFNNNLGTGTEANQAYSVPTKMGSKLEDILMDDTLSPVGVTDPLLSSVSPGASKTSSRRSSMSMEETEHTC
Nature of the assay: TRPM1 promoter luciferase signal decrease, dose response, MITF inhibitor project, cell-based, SK-MEL-5, cherry-picked, set 3 (AID 493073).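 Also: SK-MEL-5 melanoma cells with luciferase driven by the MITF target TRPM1 promoter.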 The format is functional.

The test system of another assay is INS1. Nature of the assay: beta cell apoptosis inhibitors, cytokine rescue, dose response, luminescence, retest (AID 449756).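 Also: cell death triggered by IL-1 beta plus TNF-alpha plus IFN-gamma mixture; protective hits raise ATP signal compared with cytokine alone wells.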 The format is functional, cell-based. The following applies: Rattus norvegicus.
The target of a further assay is Cytochrome P450 2C9 (Homo sapiens, UniProt P11712).
Assay [7] addresses T3, Polyadenylate-binding protein 1 (Homo sapiens, UniProt P11940). Nature of the assay: PABP1 MLLE–PAM2 binding inhibitor potency, dose response, biochemical, fluorescence polarization, FITC-PAM2 peptide (AID 602259). The format is functional. The settings on record: read-out: IC50_Mean.
Assay [8] addresses T3, Polyadenylate-binding protein 1. Nature of the assay: PABP1 MLLE–PAM2 interaction inhibitors, dose response, miRNA deadenylation inhibitor project, biochemical, fluorescence polarization, Cy5-PAM2 peptide, secondary (AID 602260). The format is functional. The following applies: read-out: IC50_Mean.
In another assay the target is Beta-galactosidase (Escherichia coli, UniProt Q8VNN2). Nature of the assay: beta-galactosidase enzyme inhibitors and activators, dose response, artefact control for CCR6 antagonist project, biochemical, E. coli enzyme, set 3 (AID 504712). It counts as functional.
Assay [9] in a line: cells. It counts as functional, cell-based.
The nature of assay [10]: HepG2 cell cytotoxicity, dose response, cytotoxicity control, ATP luminescence, cherry-pick, activator set 2 (AID 1053143). It counts as functional, cell-based.
Assay [11] can be described thus: Luminescence Cell-Based Dose Response HTS to Identify Activators of Luciferase Translation or Activity in H4 […] Cells. [Related pubchem assays: 1829 (Project Summary), 1814 (Primary HTS)]. The format is functional.
The nature of assay [12]: Luminescence Cell-Based Dose Confirmation HTS to Identify Activators of 5'UTR Stem-Loop Driven Alpha-Synuclein mRNA Translation in H4 Neuroglioblastoma Cells. [Related pubchem assays: 1829 (Project Summary), 1814 (Primary HTS)]. It counts as functional.
The target in assay [13] is T4, Nuclear receptor subfamily 0 group B member 1 (Homo sapiens, UniProt P51843).
T4 sequence (P51843 whole entry): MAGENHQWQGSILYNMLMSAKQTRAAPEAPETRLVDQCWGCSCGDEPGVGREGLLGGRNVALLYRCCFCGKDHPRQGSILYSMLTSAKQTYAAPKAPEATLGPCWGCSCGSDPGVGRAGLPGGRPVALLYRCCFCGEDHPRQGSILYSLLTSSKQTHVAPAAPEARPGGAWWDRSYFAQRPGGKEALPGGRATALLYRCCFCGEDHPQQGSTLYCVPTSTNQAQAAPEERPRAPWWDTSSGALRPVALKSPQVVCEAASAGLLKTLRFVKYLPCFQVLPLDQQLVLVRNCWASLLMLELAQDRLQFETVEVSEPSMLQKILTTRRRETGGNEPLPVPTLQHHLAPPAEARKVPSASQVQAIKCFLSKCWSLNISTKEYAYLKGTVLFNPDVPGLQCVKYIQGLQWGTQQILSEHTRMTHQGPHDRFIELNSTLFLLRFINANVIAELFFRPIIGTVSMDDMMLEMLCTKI
Nature of the assay: Luminescence-based cell-based high throughput dose response assay for inhibitors of the orphan nuclear receptor subfamily 0, group B, member 1 (DAX1; NR0B1). [Related pubchem assays (depositor defined):AID504766, AID504790]. It counts as functional.

Assay [14] is described as follows: cells. It counts as functional, cell-based. This is another data set of the same source.
The test system of the next assay is H4. Nature of the assay: Luminescence Cell-Based Dose Response HTS to Identify Activators of 5'UTR Stem-Loop Driven Prion Protein mRNA Translation in H4 Neuroglioblastoma Cells. [Related pubchem assays: 1829 (Project Summary), 1814 (Primary HTS)]. It counts as functional. The following applies: Homo sapiens.
A further assay deals with HEK293. Nature of the assay: cells. It counts as functional, cell-based. The following applies: Homo sapiens.
The target in assay [15] is T5, Oxysterols receptor LXR-beta (Homo sapiens, UniProt P55055).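 Also: agonist activity at LXR measured by a cell-based luminescence readout across a dose range, run as a counterscreen for daf-12 agonists; HEK293 cells with Gal4-LXR fusion and GAL4-driven luciferase reporter; potency for activation of Gal4-LXR reporter so compounds are agonists.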
T5 sequence (P55055 whole entry): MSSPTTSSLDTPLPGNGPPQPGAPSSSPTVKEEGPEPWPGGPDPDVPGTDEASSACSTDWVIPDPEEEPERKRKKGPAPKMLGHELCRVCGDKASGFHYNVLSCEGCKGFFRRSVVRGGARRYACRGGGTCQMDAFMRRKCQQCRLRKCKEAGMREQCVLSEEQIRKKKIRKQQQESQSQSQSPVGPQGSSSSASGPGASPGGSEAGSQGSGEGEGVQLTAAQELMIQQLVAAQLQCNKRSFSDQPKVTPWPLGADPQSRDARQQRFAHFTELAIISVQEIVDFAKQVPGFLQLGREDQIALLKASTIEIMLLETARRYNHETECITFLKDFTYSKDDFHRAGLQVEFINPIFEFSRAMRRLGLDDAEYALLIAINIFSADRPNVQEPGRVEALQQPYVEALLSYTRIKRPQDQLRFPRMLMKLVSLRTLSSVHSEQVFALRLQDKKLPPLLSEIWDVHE
It counts as functional, cell-based.

The target in assay [16] is Glucose-6-phosphate 1-dehydrogenase (Homo sapiens, UniProt P11413). Nature of the assay: human G6PD enzyme inhibitors, dose response, selectivity assay for P. falciparum G6PD inhibitor project, biochemical, fluorescence (AID 504792). It counts as functional.
Assay [17] addresses FAD-linked sulfhydryl oxidase ALR (Homo sapiens, UniProt P55789). Nature of the assay: inhibitors of human ALR sulfhydryl oxidase, dose response, biochemical, H2O2 detection, luminescence, cherry-pick (AID 493248).
The target of assay [18] is Voltage-gated inwardly rectifying potassium channel KCNH2 (Homo sapiens, UniProt Q12809). The settings on record: Potency.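 Also: confirmatory quantitative high-throughput screen measuring inhibition of hERG channel activity.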
Assay [19] can be described thus: Luminescence Cell-Based Dose Retest to Confirm Inhibitors of Cancer Stem Cells. [Related pubchem assays (depositor defined):AID2717, AID2721]. The format is functional. The following applies: Homo sapiens.
Assay [20] can be described thus: cytotoxicity in HMLE control line with eGFP shRNA, dose response, counter-screen for HMLE_sh_ECad selective toxicity project, cell-based, HMLE_sh_eGFP, luminescence (AID 463074).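 Also: HMLE human mammary epithelial cells expressing control shRNA against eGFP.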 The format is functional, Homo sapiens.
In assay [21] the target is T6, Heat shock factor protein 1 (Mus musculus, UniProt P38532).
T6 sequence (P38532 whole entry): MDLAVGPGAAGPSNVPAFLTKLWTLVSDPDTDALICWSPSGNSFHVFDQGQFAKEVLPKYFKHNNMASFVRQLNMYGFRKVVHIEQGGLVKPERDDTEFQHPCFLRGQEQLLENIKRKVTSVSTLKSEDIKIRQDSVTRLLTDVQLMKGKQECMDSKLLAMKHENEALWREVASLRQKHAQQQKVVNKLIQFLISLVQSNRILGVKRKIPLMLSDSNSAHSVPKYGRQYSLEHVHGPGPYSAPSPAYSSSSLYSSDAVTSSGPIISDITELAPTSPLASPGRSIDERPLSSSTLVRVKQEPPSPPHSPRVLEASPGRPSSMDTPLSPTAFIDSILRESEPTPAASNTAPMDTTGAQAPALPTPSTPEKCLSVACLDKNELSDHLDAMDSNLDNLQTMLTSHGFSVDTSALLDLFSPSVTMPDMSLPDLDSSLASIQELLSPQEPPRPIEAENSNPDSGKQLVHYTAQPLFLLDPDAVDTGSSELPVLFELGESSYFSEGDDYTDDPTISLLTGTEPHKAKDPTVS
Nature of the assay: inhibition of MG132-induced HSE-luciferase signal, confirmation, cell-based, NIH3T3, luminescence, dose retest (AID 2382).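 Also: NIH3T3 fibroblasts with HSF1-driven luciferase reporter stressed by proteasome inhibitor MG132; luminescence from HSF1-driven luciferase expression after 8 hours of MG132 stress.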 The format is functional.

Structures can show the parent of a compound that is named as a salt. Activity calls are given as the source filed them. A value given as a limit tells only on which side of the number the result lay.

Sequence of Voltage-gated inwardly rectifying potassium channel KCNH2 (Q12809 whole entry): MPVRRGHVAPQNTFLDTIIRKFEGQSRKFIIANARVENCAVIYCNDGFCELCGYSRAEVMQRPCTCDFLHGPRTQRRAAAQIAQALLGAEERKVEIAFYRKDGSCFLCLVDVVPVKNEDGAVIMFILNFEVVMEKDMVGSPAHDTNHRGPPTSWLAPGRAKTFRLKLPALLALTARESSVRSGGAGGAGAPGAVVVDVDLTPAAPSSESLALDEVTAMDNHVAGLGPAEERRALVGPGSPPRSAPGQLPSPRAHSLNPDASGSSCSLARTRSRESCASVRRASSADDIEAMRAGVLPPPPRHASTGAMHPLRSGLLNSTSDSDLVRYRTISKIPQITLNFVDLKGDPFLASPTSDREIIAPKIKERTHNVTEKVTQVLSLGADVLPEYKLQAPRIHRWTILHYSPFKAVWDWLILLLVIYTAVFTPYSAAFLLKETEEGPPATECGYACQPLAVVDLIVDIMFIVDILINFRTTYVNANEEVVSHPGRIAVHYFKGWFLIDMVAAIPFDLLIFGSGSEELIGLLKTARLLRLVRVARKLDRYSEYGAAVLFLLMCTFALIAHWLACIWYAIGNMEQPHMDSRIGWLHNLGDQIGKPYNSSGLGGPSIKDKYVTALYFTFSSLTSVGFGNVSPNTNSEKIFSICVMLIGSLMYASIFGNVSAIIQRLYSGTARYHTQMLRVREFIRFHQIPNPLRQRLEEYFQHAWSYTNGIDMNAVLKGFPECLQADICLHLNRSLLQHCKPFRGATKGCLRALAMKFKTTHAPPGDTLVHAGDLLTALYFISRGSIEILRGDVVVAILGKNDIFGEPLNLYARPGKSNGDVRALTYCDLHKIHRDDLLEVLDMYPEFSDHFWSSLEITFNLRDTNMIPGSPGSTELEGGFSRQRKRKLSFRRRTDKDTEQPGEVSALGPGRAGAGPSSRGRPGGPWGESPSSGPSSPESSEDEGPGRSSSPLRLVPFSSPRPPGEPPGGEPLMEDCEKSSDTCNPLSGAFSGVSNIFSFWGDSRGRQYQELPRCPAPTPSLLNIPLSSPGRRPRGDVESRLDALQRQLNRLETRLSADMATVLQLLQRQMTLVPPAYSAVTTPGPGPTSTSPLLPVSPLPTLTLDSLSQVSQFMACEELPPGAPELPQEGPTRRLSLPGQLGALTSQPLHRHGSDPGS
T3 sequence (P11940 whole entry): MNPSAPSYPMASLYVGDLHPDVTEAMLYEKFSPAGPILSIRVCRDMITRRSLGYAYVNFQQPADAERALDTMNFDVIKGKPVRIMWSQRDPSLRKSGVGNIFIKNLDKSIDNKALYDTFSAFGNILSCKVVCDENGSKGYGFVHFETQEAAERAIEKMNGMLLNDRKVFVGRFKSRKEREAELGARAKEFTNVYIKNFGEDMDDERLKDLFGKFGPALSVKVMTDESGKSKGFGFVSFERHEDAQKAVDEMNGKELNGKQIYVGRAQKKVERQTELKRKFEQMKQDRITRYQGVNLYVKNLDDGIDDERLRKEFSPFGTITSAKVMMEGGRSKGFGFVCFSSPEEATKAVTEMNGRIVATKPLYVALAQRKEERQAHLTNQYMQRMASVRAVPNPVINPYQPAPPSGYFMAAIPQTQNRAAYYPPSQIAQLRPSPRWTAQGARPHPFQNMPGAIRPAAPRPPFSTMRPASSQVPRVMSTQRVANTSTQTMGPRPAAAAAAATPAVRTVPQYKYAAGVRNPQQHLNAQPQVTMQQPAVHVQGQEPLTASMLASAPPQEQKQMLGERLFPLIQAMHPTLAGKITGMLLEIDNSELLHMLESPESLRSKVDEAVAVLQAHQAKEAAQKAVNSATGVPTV
Sequence of FAD-linked sulfhydryl oxidase ALR (P55789 whole entry): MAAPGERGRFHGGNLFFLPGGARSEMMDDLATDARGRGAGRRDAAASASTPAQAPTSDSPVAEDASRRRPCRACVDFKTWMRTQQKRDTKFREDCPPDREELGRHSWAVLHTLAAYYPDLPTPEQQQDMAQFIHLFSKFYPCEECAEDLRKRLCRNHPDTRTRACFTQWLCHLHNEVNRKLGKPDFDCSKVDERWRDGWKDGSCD
Sequence of DNA dC->dU-editing enzyme APOBEC-3A (P31941 whole entry): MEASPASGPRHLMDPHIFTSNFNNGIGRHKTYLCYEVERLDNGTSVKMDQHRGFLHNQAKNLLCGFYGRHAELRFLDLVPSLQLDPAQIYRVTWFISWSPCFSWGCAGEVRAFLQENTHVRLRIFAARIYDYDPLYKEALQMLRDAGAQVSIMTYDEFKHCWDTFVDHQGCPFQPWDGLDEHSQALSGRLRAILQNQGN
Sequence of DNA dC->dU-editing enzyme APOBEC-3G (Q9HC16 whole entry): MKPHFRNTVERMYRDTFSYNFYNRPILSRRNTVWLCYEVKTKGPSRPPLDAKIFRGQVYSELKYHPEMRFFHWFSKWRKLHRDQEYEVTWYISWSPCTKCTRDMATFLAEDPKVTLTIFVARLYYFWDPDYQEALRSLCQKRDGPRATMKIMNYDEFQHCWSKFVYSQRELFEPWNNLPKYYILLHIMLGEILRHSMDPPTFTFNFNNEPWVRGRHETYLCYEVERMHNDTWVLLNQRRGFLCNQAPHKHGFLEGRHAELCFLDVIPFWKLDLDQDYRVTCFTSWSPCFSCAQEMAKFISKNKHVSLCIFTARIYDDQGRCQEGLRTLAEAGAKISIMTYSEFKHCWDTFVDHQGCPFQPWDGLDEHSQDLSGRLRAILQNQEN
Sequence of Glucose-6-phosphate 1-dehydrogenase (P11413 whole entry): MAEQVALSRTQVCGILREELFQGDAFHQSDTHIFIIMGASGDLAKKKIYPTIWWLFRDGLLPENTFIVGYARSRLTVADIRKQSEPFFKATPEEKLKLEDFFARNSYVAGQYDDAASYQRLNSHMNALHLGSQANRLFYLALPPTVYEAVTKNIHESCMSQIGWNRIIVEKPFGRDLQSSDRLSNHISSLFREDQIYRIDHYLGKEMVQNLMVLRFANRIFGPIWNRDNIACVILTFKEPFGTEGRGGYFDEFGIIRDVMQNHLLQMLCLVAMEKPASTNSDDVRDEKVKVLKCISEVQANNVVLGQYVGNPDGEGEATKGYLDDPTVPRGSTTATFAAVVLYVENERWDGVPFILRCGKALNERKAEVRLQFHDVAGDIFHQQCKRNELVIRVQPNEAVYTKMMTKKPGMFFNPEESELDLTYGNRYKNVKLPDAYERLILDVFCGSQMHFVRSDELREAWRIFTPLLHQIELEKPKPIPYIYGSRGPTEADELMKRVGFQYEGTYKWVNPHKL
Sequence of Cytochrome P450 2C9 (P11712 whole entry): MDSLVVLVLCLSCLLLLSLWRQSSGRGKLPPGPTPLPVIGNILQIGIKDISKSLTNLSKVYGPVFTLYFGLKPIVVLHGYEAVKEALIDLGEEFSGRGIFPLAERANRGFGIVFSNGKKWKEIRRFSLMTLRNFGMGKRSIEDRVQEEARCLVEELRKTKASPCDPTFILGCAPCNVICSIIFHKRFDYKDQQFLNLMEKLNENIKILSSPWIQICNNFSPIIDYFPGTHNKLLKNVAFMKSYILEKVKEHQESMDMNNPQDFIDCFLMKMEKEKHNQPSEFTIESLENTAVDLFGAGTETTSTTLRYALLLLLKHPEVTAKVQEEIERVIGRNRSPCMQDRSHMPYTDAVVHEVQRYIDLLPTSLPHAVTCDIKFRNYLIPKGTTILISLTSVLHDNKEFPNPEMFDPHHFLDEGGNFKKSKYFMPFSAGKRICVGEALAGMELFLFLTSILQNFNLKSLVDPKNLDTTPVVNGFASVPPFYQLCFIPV
Sequence of Beta-galactosidase (Q8VNN2 whole entry): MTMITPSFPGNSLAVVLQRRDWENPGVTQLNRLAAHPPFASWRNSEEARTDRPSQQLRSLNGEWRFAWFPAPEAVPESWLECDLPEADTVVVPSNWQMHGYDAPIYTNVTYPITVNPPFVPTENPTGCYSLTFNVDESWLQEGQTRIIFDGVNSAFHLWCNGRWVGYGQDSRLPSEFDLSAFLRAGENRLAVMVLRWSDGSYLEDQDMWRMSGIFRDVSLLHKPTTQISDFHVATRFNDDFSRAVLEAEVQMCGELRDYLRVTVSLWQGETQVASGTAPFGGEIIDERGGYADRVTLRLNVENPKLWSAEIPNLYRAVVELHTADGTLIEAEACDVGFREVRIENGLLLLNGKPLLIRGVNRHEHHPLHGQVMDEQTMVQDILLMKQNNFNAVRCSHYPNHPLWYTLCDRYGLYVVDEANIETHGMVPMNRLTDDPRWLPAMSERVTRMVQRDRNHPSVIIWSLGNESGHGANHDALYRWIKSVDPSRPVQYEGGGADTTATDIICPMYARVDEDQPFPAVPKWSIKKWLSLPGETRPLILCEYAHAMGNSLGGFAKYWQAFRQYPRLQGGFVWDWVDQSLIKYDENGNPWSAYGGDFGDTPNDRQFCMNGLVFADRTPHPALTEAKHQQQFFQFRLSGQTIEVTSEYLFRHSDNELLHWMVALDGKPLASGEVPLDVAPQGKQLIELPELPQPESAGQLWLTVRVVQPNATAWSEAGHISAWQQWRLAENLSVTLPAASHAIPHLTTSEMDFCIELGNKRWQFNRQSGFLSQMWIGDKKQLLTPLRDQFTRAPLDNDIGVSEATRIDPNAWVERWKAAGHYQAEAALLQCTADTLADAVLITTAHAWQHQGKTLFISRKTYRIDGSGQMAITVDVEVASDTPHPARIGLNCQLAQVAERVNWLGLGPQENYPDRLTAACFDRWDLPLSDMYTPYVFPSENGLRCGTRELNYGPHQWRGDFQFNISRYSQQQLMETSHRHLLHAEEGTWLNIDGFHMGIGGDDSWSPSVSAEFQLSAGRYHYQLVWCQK

In the case of `COC(=O)C1=C(C)N(Cc2ccccc2)C(NCCc2cccnc2)=N[C@H]1c1ccc(Br)cc1`, the IC50 was 3.04 µM (active) in assay [1], > 20 µM (inactive) in [2] and 4.68 µM (active) in assay [4]. For the same compound, the AC50 with A-375 [3] is > 11 µM (active); with A-375 [5] it was > 11 µM (active); in assay [6], 17.8 µM (active).

`CC(C)Oc1ccc(C(CCN)C2CCCCC2)cc1` (stereo unspecified): the AC50 in the assay with INS1 is 7.47 µM (active); in the assay on A-375 [5], 17.7 µM (active); in assay [6] it was 9.99 µM (active).

Take `O=C1NC(=S)NC(=O)C1=Cc1cccc2cc3ccccc3cc12`: the AC50 with A-375 [3] is > 35 µM (active); in the assay on A-375 [5], > 35 µM (active); at Cytochrome P450 2C9, 3.16 µM (inconclusive); in assay [6] it was 4.81 µM (active). Moreover, the IC50 was > 66 µM (inactive) in [7], > 66 µM (inactive) in assay [8] and > 66.6 µM (inactive) at Beta-galactosidase.

Regarding `O=C(Nc1ccccc1O)c1ccc(NS(=O)(=O)c2cccc3cccnc23)cc1`, the EC50 in “cells [9]” was > 350 µM (not active); in assay [11] it was 10.7 µM (active); in assay [12] it was 11.2 µM (active); in the assay “cells [14]”, 8.05 µM (active); in the assay with H4, 34 µM (active); in assay [15] it was > 67.5 µM (inactive). Moreover, the AC50 in assay [10] was 9.01 µM (active). Also, the IC50 in [13] was > 67.5 µM (inactive); in the assay on HEK293 it was 0.695 µM (active).

Consider `Oc1ccc(C23CC4CC(CC(C4)C2)C3)cc1O`, for which the IC50 in assay [16] is > 80 µM (inactive). Moreover, the AC50 in [17] is 4.17 µM (active).

As for `CCOC(=O)N1CCN(C(=O)COc2cc(=O)n(CC)c3ccccc23)CC1`, the IC50 (in assay [13]; in the assay with HEK293) was > 67.5 µM (inactive) each time.

Consider `COc1ccc(CC(=O)NC2CCSc3ccccc32)c(OC)c1` (stereo unspecified), for which the IC50 (in assay [13]; in the assay on HEK293) was > 67.6 µM (inactive) in each case.

In the case of `COC[C@H]1OC(=O)c2coc3c2[C@@]1(C)C1=C(C3=O)C2CCC(=O)[C@@]2(C)C[C@H]1OC(C)=O` (stereo partly specified), the AC50 in assay [18] is 17.8 µM (inconclusive).

Regarding `CC(C)(C)c1ccc2c(c1)OC(C(=O)N/N=C\c1ccc[nH]1)CO2` (stereo unspecified), the values for the AC50 in assay [19] and in [20] were 1.94 µM (active) and 23 µM (active), respectively. For the same compound, the EC50 in assay [21] was 0.436 µM (active).

Turning to `C#CCOC(=O)C1=CCCN(C)C1` [ARECAIDINE PROPARGYL ESTER HYDROBROMIDE], the AC50 in assay [18] is 35.5 µM (inconclusive).

The AC50 is the concentration giving half of the maximal activity seen. For orientation: EC50 means the midpoint of the concentration-response curve.
